Like-named read-outs stand apart in the source and are kept apart here. Starred links: 1 amine or outer side, 2 acyl side, 3 side chain; linkers in the order of their positions; H or OH if unused. Non-standard residues stand in square brackets, D forms with d. Groups on a side chain read outwards from the residue. *: point of attachment. C18 diacid = O=C(O)CCCCCCCCCCCCCCCCC(=O)*; αMePhe(2-F) = C[C@](N)(Cc1ccccc1F)C(=O)O; γGlu = O=C(O)[C@H](CCC(=O)[*:2])N[*:1]; αMe4Pal = C[C@](N)(Cc1ccncc1)C(=O)O; αMeY = C[C@](N)(Cc1ccc(O)cc1)C(=O)O; 4Pal = N[C@@H](Cc1ccncc1)C(=O)O; αMeL = CC(C)C[C@](C)(N)C(=O)O; αMeS = C[C@](N)(CO)C(=O)O; Orn = NCCC[C@H](N)C(=O)O; AEEA = NCCOCCOCC(=O)O; Aib = CC(C)(N)C(=O)O
Columns and labels:
Assay type in all cases: cell-based
hGIPR [1] = molecular target: T1, hGIPR (Homo sapiens, UniProt P48546); assay: Functional cAMP activity in the presence of 1% HSA; conditions: read-out: cAMP Rel EC50, hGIPR
T1 sequence (P48546 22-466): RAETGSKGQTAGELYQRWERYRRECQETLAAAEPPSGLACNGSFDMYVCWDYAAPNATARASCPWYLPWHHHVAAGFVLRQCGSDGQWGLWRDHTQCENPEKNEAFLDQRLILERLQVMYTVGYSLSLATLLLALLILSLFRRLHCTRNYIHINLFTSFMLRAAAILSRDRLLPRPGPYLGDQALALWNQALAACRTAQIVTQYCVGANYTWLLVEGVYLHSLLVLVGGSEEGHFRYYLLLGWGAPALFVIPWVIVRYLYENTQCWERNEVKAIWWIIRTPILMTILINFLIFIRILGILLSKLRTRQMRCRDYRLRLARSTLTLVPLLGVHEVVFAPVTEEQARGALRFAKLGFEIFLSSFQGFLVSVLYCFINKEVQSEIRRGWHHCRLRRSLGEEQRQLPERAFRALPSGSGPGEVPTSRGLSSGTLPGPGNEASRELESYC

hGLP-1R [2] = molecular target: T2, hGLP-1R (Homo sapiens, UniProt P43220); assay: Functional cAMP activation in the presence of 0.1% casein (no HSA); conditions: read-out: Relative cAMP EC50, hGLP-1R;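 note: intracellular cAMP rise after 30 min at 37 °C read by HTRF, normalized between buffer only (0%) and maximal control ligand (100%), four-parameter variable-slope fit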
T2 sequence (P43220 24-463): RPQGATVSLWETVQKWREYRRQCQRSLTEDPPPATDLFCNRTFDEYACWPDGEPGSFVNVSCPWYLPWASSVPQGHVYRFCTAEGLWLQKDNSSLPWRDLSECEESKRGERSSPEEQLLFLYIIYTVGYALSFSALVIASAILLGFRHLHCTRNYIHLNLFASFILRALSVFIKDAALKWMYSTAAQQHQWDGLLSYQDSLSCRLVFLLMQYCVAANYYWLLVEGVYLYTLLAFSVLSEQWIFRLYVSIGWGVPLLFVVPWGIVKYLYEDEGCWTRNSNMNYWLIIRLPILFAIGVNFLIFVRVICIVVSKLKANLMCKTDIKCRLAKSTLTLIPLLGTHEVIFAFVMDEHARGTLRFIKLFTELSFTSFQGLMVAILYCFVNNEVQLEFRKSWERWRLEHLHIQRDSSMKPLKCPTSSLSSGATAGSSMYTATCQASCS

human GcgR = human GcgR (Homo sapiens, UniProt P47871); assay: Functional cAMP activity in the presence of 1% HSA; conditions: read-out: cAMP Rel EC50, hGcgR
human GcgR, sequence (P47871 26-477): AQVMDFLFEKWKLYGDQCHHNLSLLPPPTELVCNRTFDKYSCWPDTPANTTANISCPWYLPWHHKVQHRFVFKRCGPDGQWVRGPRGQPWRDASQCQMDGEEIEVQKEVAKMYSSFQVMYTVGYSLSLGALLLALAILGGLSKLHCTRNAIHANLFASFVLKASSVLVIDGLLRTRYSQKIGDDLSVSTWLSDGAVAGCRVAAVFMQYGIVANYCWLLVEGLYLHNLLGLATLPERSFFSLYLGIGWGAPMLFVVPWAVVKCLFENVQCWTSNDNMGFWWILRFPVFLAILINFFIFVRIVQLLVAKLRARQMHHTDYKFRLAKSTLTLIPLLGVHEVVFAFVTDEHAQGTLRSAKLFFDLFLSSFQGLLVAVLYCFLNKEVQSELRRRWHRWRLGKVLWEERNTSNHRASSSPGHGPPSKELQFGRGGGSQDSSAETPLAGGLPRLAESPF

hGcgR = hGcgR (Homo sapiens, UniProt P47871); assay: Functional cAMP activation in the presence of 0.1% casein (no HSA); conditions: read-out: Relative cAMP EC50, hGcgR;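 note: intracellular cAMP rise after 30 min at 37 °C, read by HTRF against a cAMP standard curve, scaled from buffer only (0%) to maximal control ligand response (100%)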
hGcgR, sequence (P47871 26-477): as above

hGIPR [3] = molecular target: T1, hGIPR; assay: as above; conditions: read-out: Relative cAMP EC50, hGIPR
hGLP-1R [4] = molecular target: T2, hGLP-1R; assay: Functional cAMP activity in the presence of 1% HSA; conditions: read-out: cAMP Rel EC50, hGLP-1R
[5] = in the presence of 0.1% casein (no HSA), geometric mean
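Throughout, for Relative cAMP EC50, hGIPR: intracellular cAMP rise after 30 min at 37 °C read by HTRF against a standard curve, scaled between buffer alone (0%) and top control ligand concentration (100%), four-parameter fit.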

Row | Substance | EC50 (hGIPR [1]) | EC50 (hGLP-1R [2]; [5]) | EC50 (human GcgR) | EC50 (hGcgR; [5]) | EC50 (hGIPR [3]; [5]) | EC50 (hGLP-1R [4]) | EC50 (hGLP-1R [2]) | EC50 (hGcgR) | EC50 (hGIPR [3])
1 | H-Y[Aib]QGT[αMePhe(2-F)]TSD[4Pal][αMeS]I[αMeL]LD[Orn]K([AEEA-γGlu-C18 diacid])AQ[αMe4Pal]EFI[dE][αMeY]LIEGGPSSGEPPPGGE-NH2 [Example 1145] | 0.848 nM | 0.313 nM | 148 nM | 1.07 nM | 0.00689 nM | 39.1 nM |  |  | 
2 | H-Y[Aib]QGT[αMePhe(2-F)]TSD[4Pal][αMeS]I[αMeL]LD[Orn]K([AEEA-γGlu-C18 diacid])AQ[αMe4Pal]EFI[dE][αMeY]LIEGGPSSGEPPPTGE-NH2 [Example 1143] | 0.751 nM | 0.381 nM | 182 nM | 1.42 nM | 0.0087 nM | 49.6 nM |  |  | 
3 | H-Y[Aib]QGT[αMePhe(2-F)]TSD[4Pal][αMeS]I[αMeL]LD[Orn]K([AEEA-γGlu-C18 diacid])AQ[αMe4Pal]EFI[dE][αMeY]LVEGGPSSGAPPPEGE-NH2 [Example 1158] | 1.42 nM | 0.419 nM | 301 nM | 2.19 nM | 0.0126 nM | 46.8 nM |  |  | 
4 | H-Y[Aib]QGT[αMePhe(2-F)]TSD[4Pal][αMeS]I[αMeL]LD[Orn]K([AEEA-γGlu-C18 diacid])AQ[αMe4Pal]EFI[dE][αMeY]LVEGGPSSGAPPPESE-NH2 [Example 1156] | 1.33 nM | 0.444 nM | 337 nM | 2.94 nM | 0.0127 nM | 47.1 nM |  |  | 
5 | H-Y[Aib]QGT[αMePhe(2-F)]TSD[4Pal][αMeS]I[αMeL]LD[Orn]K([AEEA-γGlu-C18 diacid])AQ[αMe4Pal]EFI[dE][αMeY]LVEGGPSSGAPPPGGE-NH2 [Example 1154] | 0.954 nM | 0.344 nM | 320 nM | 6.42 nM | 0.00879 nM | 44.5 nM |  |  | 
6 | H-Y[Aib]QGT[αMePhe(2-F)]TSD[4Pal][αMeS]I[αMeL]LD[Orn]K([AEEA-γGlu-C18 diacid])AQ[αMe4Pal]EFI[dE][αMeY]LVEGGPSSGAPPPSGE-NH2 [Example 749] | 1.47 nM |  | 28 nM |  |  | 33.9 nM | 0.293 nM | 2.21 nM | 0.00718 nM
7 | H-Y[Aib]QGT[αMePhe(2-F)]TSD[4Pal][αMeS]I[αMeL]LD[Orn]K([AEEA-γGlu-C18 diacid])AQ[αMe4Pal]EFI[dE][αMeY]LVEGGPSSGAPPPSGSE-NH2 [Example 751] | 1.27 nM |  | 267 nM |  |  | 32.3 nM | 0.302 nM | 1.9 nM | 0.00759 nM
8 | H-Y[Aib]QGT[αMePhe(2-F)]TSD[4Pal][αMeS]I[αMeL]LD[Orn]K([AEEA-γGlu-C18 diacid])AQ[αMe4Pal]EFI[dE][αMeY]LVEGGPSSGAPPPTGE-NH2 [Example 1152] | 1.21 nM | 0.371 nM | 287 nM | 2.32 nM | 0.0101 nM | 43.8 nM |  |  | 
9 | H-Y[Aib]QGT[αMePhe(2-F)]TSD[4Pal][αMeS]I[αMeL]LD[Orn]K([AEEA-γGlu-C18 diacid])AQ[αMe4Pal]EFI[dE][αMeY]LVEGGPSSGEPPPEGE-NH2 [Example 1159] | 1.29 nM | 0.45 nM | 238 nM | 1.86 nM | 0.0118 nM | 64.1 nM |  |  | 
10 | H-Y[Aib]QGT[αMePhe(2-F)]TSD[4Pal][αMeS]I[αMeL]LD[Orn]K([AEEA-γGlu-C18 diacid])AQ[αMe4Pal]EFI[dE][αMeY]LVEGGPSSGEPPPESE-NH2 [Example 1157] | 1.28 nM | 0.408 nM | 384 nM | 2.04 nM | 0.0124 nM | 57.5 nM |  |  | 
11 | H-Y[Aib]QGT[αMePhe(2-F)]TSD[4Pal][αMeS]I[αMeL]LD[Orn]K([AEEA-γGlu-C18 diacid])AQ[αMe4Pal]EFI[dE][αMeY]LVEGGPSSGEPPPGGE-NH2 [Example 1155] | 0.888 nM | 0.434 nM | 288 nM | 1.83 nM | 0.00917 nM | 44.4 nM |  |  | 
12 | H-Y[Aib]QGT[αMePhe(2-F)]TSD[4Pal][αMeS]I[αMeL]LD[Orn]K([AEEA-γGlu-C18 diacid])AQ[αMe4Pal]EFI[dE][αMeY]LVEGGPSSGEPPPSGE-NH2 [Example 750] | 1.34 nM |  | 205 nM |  |  | 39.1 nM | 0.302 nM | 2 nM | 0.00784 nM
13 | H-Y[Aib]QGT[αMePhe(2-F)]TSD[4Pal][αMeS]I[αMeL]LD[Orn]K([AEEA-γGlu-C18 diacid])AQ[αMe4Pal]EFI[dE][αMeY]LVEGGPSSGEPPPSGSE-NH2 [Example 752] | 1.74 nM |  | 228 nM |  |  | 44 nM | 0.274 nM | 1.9 nM | 0.00689 nM
14 | H-Y[Aib]QGT[αMePhe(2-F)]TSD[4Pal][αMeS]I[αMeL]LD[Orn]K([AEEA-γGlu-C18 diacid])AQ[αMe4Pal]EFI[dE][αMeY]LVEGGPSSGEPPPSGSEE-NH2 [Example 736] | 1.23 nM |  | 245 nM |  |  | 46.3 nM | 0.489 nM | 2.85 nM | 0.014 nM
15 | H-Y[Aib]QGT[αMePhe(2-F)]TSD[4Pal][αMeS]I[αMeL]LD[Orn]K([AEEA-γGlu-C18 diacid])AQ[αMe4Pal]EFI[dE][αMeY]LVEGGPSSGEPPPSGTGE-NH2 [Example 734] | 1.3 nM |  | 230 nM |  |  | 38.1 nM | 0.417 nM | 2.08 nM | 0.0132 nM
16 | H-Y[Aib]QGT[αMePhe(2-F)]TSD[4Pal][αMeS]I[αMeL]LD[Orn]K([AEEA-γGlu-C18 diacid])AQ[αMe4Pal]EFI[dE][αMeY]LVEGGPSSGEPPPTGE-NH2 [Example 1153] | 1.39 nM | 0.33 nM | 215 nM | 2.69 nM | 0.0109 nM | 52.7 nM |  |  | 
17 | H-Y[Aib]QGT[αMePhe(2-F)]TSD[4Pal][αMeS]I[αMeL]LD[Orn]K([AEEA-γGlu-γGlu-C18 diacid])AQ[Aib][Orn]FIEYLIEAGPSSGEPPPEEG-NH2 [Example 485] | 0.869 nM |  | 298 nM |  |  | 11.8 nM | 0.277 nM | 4.29 nM | 0.0194 nM
18 | H-Y[Aib]QGT[αMePhe(2-F)]TSD[4Pal][αMeS]I[αMeL]LD[Orn]K([AEEA-γGlu-γGlu-C18 diacid])AQ[αMe4Pal]EFI[dE][αMeY]LIEGGPSSGAPPPSGE-NH2 [Example 1176] | 0.462 nM | 0.344 nM | 229 nM | 1.8 nM | 0.00717 nM | 43.8 nM |  |  | 
19 | H-Y[Aib]QGT[αMePhe(2-F)]TSD[4Pal][αMeS]I[αMeL]LD[Orn]K([AEEA-γGlu-γGlu-C18 diacid])AQ[αMe4Pal]EFI[dE][αMeY]LIEGGPSSGAPPPSGGGE-NH2 [Example 1180] | 0.341 nM | 0.445 nM | 205 nM | 3.16 nM | 0.00602 nM | 35.6 nM |  |  | 
20 | H-Y[Aib]QGT[αMePhe(2-F)]TSD[4Pal][αMeS]I[αMeL]LD[Orn]K([AEEA-γGlu-γGlu-C18 diacid])AQ[αMe4Pal]EFI[dE][αMeY]LIEGGPSSGAPPPSGSE-NH2 [Example 1178] | 0.544 nM | 0.437 nM | 270 nM | 3.08 nM | 0.00913 nM | 39 nM |  |  | 
21 | H-Y[Aib]QGT[αMePhe(2-F)]TSD[4Pal][αMeS]I[αMeL]LD[Orn]K([AEEA-γGlu-γGlu-C18 diacid])AQ[αMe4Pal]EFI[dE][αMeY]LIEGGPSSGEPPPSGE-NH2 [Example 1177] | 0.544 nM | 0.681 nM | 156 nM | 4.23 nM | 0.0114 nM | 43.6 nM |  |  | 
22 | H-Y[Aib]QGT[αMePhe(2-F)]TSD[4Pal][αMeS]I[αMeL]LD[Orn]K([AEEA-γGlu-γGlu-C18 diacid])AQ[αMe4Pal]EFI[dE][αMeY]LIEGGPSSGEPPPSGGGE-NH2 [Example 1181] | 0.666 nM | 0.664 nM | 203 nM | 3.34 nM | 0.0115 nM | 48.2 nM |  |  | 
23 | H-Y[Aib]QGT[αMePhe(2-F)]TSD[4Pal][αMeS]I[αMeL]LD[Orn]K([AEEA-γGlu-γGlu-C18 diacid])AQ[αMe4Pal]EFI[dE][αMeY]LIEGGPSSGEPPPSGSE-NH2 [Example 1179] | 0.58 nM | 0.652 nM | 197 nM | 2.87 nM | 0.0102 nM | 37.9 nM |  |  | 
24 | H-Y[Aib]QGT[αMePhe(2-F)]TSD[4Pal][αMeS]I[αMeL]LD[Orn]K([Glu-γGlu-C18 diacid])AQ[Aib][Orn]FI[dE][αMeY]LSEGGPSSGEPPPSGTE-NH2 [Example 563] | 11.8 nM |  | 1010 nM |  |  | 98.7 nM | 1.01 nM | 8.3 nM | 0.132 nM
